In patent US7388014B2, “Quinazoline derivatives and therapeutic use thereof” (Rexahn Pharmaceuticals, Inc., priority 2004, dated 2008):

What was measured:
Assay type in all cases: cell-based, Human
[1] = test system: A549; assay: Cell growth inhibition assay (SRB), A549; conditions: A549 (lung), 96 hours
Source text: (§1) Cancer cells used in this study to determine the effect of quinazoline compounds were obtained from the following sources: Human OVCAR-3 (ovary), MCF-7 (breast, hormone-dependent), Hs 578T (breast), MDA-MB-231 (breast), HeLa (cervix), PC3 (prostate), HepG2 (liver), A549 (lung), Caki-1 (kidney), HT-29 (colon), HCT116 (colon) and PANC-1 (pancreas) from the American Type Culture Collection (ATCC) (Manassas, Va.); U251 (brain) from Riken (Japan); MKN-45 (stomach) from DSMZ (Germany); UMRC2 (kidney) and Lox IMVI (melanoma) from the United States National Cancer Institute (Bethesda, Md.). All cell lines except Hs 578T, MDA-MB-231, HCT116, UMRC2, Caki-1 and PANC-1 were grown in RPMI1640 medium (Invitrogen, Carlsbad, Calif.) supplemented with 10% fetal bovine serum (“FBS”), 1 mM sodium pyruvate, 10 mM HEPES and 100 U/ml penicillin and 100 μg/ml streptomycin (“P/S”). Hs 578T, MDA-MB-231, HCT116, UMRC2, Caki-1 and PANC-1 cells were maintained in Dulbecco's modified Eagle's medium (“DMEM”, Invitrogen) supplemented with 10% FBS, P/S, 10 mM HEPES and 2 mM L-glutamine. All cells were incubated at 37° C. under humidified 5% CO2.
(§2) The growth inhibition of the substituted quinazoline derivative compounds against a variety of human tumor cells was evaluated. The relative importance of particular substituent groups on the compounds was also studied. The substituted quinazoline derivative compounds, prepared as described above, were tested, along with DMSO as a control.
(§3) The growth inhibition assay of various compounds against 15 human tumor cell lines was performed using the Sulforhodamnine B (“SRB”) method (Skehan et al., J. National Cancer Institute, 82: 1107-1112 (1990)). Briefly, exponentially growing tumor cells were seeded into a 96-well plate at a density of 2-3×10^3 cells/well and treated with quinazoline compounds the next day. Triplicate wells were used for each treatment. The cells were. incubated with the various compounds for 96 hours at 37° C. in a humidified 5% CO2 atmosphere. After 96-hour incubation, cells were fixed with 10% trichloroacetic acid (“TCA”), incubated for 1 hour at 4° C., and washed 3 times with tap water. Subsequently cells were stained with 0.4% sulforhodamine B in 1% acetic acid for 30 minutes, washed 4 times with 1% acetic acid, and air-dried again. After 5 minutes agitation in 10 mM Tris solution, the absorbance of each well was measured at 530 nm using Benchmark Plus Microplate reader (Bio-Rad Laboratories, Hercules, Calif.).
(§4) To translate the OD530 values into the number of live cells in each well, the OD530 values were compared to those on standard OD530—versus—cell number curves generated for each cell line. The percent survival was calculated using the formula: % Survival=live cell number [test]/live cell number [control]×100
(§5) The IC50 values were calculated by non-linear regression analysis.

[2] = test system: HepG2; assay: Cell growth inhibition assay (SRB), HepG2; conditions: HepG2 (liver), 96 hours, read-out: Inhibition of cell growth (IC50, μM) HepG 2
Source text: as §1, §2, §3, §4, §5

[3] = test system: MKN-45; assay: Cell growth inhibition assay (SRB), MKN-45; conditions: MKN-45 (stomach), 96 hours
Source text: as §1, §2, §3, §4, §5

[4] = test system: PANC-1; assay: Cell growth inhibition assay (SRB), PANC-1; conditions: PANC-1 (pancreas), 96 hours
Source text: as §1, §2, §3, §4, §5

[5] = test system: HT-29; assay: Cell growth inhibition assay (SRB), HT-29; conditions: HT-29 (colon), 96 hours
Source text: as §1, §2, §3, §4, §5

[6] = test system: PC3; assay: Cell growth inhibition assay (SRB), PC3; conditions: PC3 (prostate), 96 hours
Source text: as §1, §2, §3, §4, §5

[7] = test system: U251; assay: Cell growth inhibition assay (SRB), U251; conditions: U251 (brain), 96 hours
Source text: as §1, §2, §3, §4, §5

[8] = test system: HeLa; assay: Cell growth inhibition assay (SRB), HeLa; conditions: HeLa (cervix), 96 hours
Source text: as §1, §2, §3, §4, §5

[9] = test system: Lox IMVI; assay: Cell growth inhibition assay (SRB), Lox IMVI; conditions: Lox IMVI (melanoma), 96 hours
Source text: as §1, §2, §3, §4, §5

[10] = test system: OVCAR-3; assay: Cell growth inhibition assay (SRB), OVCAR-3; conditions: OVCAR-3 (ovary), 96 hours
Source text: as §1, §2, §3, §4, §5

[11] = test system: MCF-7; assay: Cell growth inhibition assay (SRB), MCF-7; conditions: MCF-7 (breast, hormone-dependent), 96 hours
Source text: as §1, §2, §3, §4, §5

[12] = test system: MDA-MB-231; assay: Cell growth inhibition assay (SRB), MDA-MB-231; conditions: MDA-MB-231 (breast), 96 hours
Source text: as §1, §2, §3, §4, §5

[13] = test system: Hs 578T; assay: Cell growth inhibition assay (SRB), Hs 578T; conditions: Hs 578T (breast), 96 hours
Source text: as §1, §2, §3, §4, §5

[14] = test system: UMRC2; assay: Cell growth inhibition assay (SRB), UMRC2; conditions: UMRC2 (kidney), 96 hours
Source text: as §1, §2, §3, §4, §5

[15] = test system: Caki-1; assay: Cell growth inhibition assay (SRB), Caki-1; conditions: Caki-1 (kidney), 96 hours
Source text: as §1, §2, §3, §4, §5

Structure (SMILES)	IC50 [1]	IC50 [2]	IC50 [3]	IC50 [4]	IC50 [5]	IC50 [6]	IC50 [7]	IC50 [8]	IC50 [9]	IC50 [10]	IC50 [11]	IC50 [12]	IC50 [13]	IC50 [14]	IC50 [15]
Brc1ccc2ncnc(NCCCCc3ccccc3)c2c1 [RX-1251]	1.92 µM	0.9 µM	> 3 µM	> 3 µM	> 3 µM	> 3 µM	0.42 µM	> 3 µM	0.19 µM	> 3 µM	0.55 µM	0.34 µM	0.43 µM	0.47 µM	1.96 µM
Fc1cccc(CCNc2ncnc3ccccc23)c1 [RX-1195]	2.1 µM	1.18 µM	> 3 µM	0.34 µM	2.07 µM	> 3 µM	1.95 µM	> 3 µM	2.16 µM	2.6 µM	1.53 µM	0.46 µM	0.44 µM	0.41 µM	> 3 µM
Cn1cnc2cc3ncnc(NCCc4ccccc4F)c3cc21 [RX-1857]	> 3 µM	> 3 µM	> 3 µM	> 3 µM	> 3 µM	> 3 µM	> 3 µM	> 3 µM	> 3 µM	> 3 µM	> 3 µM	> 3 µM	> 3 µM	> 3 µM	1.57 µM
FC(F)(F)c1ccccc1CNc1ncnc2ccc(I)cc12 [RX-1682]	> 3 µM	1.51 µM	> 3 µM	> 3 µM	> 3 µM	> 3 µM	0.53 µM	> 3 µM	> 3 µM	> 3 µM	0.55 µM	> 3 µM	> 3 µM	> 3 µM	> 3 µM
Fc1cc(Cl)ccc1Nc1ncnc2ccc(Br)cc12 [RX-1279]	2.86 µM	0.75 µM	> 3 µM	> 3 µM	> 3 µM	> 3 µM	2.97 µM	> 3 µM	> 3 µM	> 3 µM	> 3 µM	> 3 µM	> 3 µM	> 3 µM	2.15 µM
Fc1cc(Cl)ccc1Nc1ncnc2ccc(I)cc12 [RX-1701]	> 3 µM	1.16 µM	> 3 µM	> 3 µM	> 3 µM	> 3 µM	2.19 µM	> 3 µM	> 3 µM	> 3 µM	1.36 µM	> 3 µM	> 3 µM	> 3 µM	2.85 µM
Ic1ccc2ncnc(NC3CCCCC3)c2c1 [RX-1659]	> 3 µM	1 µM	> 3 µM	> 3 µM	> 3 µM	> 3 µM	0.51 µM	> 3 µM	1.95 µM	> 3 µM	0.36 µM	> 3 µM	> 3 µM	> 3 µM	1.71 µM
c1ccc(CCCCNc2ncnc3cc4[nH]cnc4cc23)cc1 [RX-1842]	> 3 µM	2.47 µM	> 3 µM	> 3 µM	> 3 µM	> 3 µM	1.93 µM	> 3 µM	1.15 µM	> 3 µM	1.34 µM	0.84 µM	1.05 µM	1.98 µM	> 3 µM
